Assay results reported in ChEMBL document CHEMBL1806450, “Synthesis of an aryloxy oxo pyrimidinone library that displays ALK-selective inhibition” (Bioorg Med Chem Lett, 2011).

Legend:
Insulin receptor = Insulin receptor (Homo sapiens, UniProt P06213)
Description: Inhibition of recombinant IRK using biotinylated-poly(GT) peptide as substrate after 60 mins

[1] = target: ALK tyrosine kinase receptor (Homo sapiens, UniProt Q9UM73)
Description: Inhibition of 6xHis-tagged NPM-ALK using biotinylated-poly(GT) peptide as substrate after 60 mins

[2] = target: Hepatocyte growth factor receptor (Homo sapiens, UniProt P08581)
Hepatocyte growth factor receptor, sequence (P08581 whole entry): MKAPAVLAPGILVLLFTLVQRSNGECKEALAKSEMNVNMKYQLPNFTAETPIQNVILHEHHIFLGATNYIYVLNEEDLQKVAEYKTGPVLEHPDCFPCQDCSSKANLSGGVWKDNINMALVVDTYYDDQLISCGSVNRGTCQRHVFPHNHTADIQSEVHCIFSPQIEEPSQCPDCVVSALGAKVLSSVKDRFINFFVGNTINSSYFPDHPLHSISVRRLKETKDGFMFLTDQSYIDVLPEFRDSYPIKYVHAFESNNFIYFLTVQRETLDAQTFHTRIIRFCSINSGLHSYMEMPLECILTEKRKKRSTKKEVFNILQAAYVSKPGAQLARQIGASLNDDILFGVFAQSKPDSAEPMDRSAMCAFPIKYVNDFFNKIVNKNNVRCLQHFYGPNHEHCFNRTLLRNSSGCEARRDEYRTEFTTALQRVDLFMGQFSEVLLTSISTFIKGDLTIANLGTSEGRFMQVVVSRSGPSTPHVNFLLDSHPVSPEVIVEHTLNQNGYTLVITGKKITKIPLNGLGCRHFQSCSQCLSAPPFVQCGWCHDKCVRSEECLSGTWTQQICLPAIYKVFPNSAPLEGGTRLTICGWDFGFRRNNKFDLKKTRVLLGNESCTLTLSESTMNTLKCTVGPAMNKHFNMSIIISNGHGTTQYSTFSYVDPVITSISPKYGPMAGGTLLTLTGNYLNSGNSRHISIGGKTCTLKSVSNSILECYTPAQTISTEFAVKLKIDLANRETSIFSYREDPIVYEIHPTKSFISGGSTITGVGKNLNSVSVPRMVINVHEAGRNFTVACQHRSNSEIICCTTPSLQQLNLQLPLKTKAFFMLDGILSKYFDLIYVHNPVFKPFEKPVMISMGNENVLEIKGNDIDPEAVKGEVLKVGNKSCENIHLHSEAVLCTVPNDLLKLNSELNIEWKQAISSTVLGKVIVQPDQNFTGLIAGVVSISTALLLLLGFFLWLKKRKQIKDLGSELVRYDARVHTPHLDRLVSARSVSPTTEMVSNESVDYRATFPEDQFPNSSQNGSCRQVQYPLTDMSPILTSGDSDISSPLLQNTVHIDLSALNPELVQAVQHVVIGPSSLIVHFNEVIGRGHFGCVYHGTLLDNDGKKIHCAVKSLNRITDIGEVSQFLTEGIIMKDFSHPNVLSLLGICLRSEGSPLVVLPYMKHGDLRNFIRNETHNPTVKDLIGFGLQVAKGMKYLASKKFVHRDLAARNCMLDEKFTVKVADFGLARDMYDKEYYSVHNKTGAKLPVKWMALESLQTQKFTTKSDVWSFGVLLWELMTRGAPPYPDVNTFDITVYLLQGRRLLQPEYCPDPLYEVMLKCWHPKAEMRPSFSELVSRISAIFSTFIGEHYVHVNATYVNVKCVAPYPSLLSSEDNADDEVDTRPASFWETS
Description: Inhibition of recombinant MET using biotinylated-poly(GT) peptide as substrate after 60 mins

ALK tyrosine kinase receptor, sequence (Q9UM73 whole entry): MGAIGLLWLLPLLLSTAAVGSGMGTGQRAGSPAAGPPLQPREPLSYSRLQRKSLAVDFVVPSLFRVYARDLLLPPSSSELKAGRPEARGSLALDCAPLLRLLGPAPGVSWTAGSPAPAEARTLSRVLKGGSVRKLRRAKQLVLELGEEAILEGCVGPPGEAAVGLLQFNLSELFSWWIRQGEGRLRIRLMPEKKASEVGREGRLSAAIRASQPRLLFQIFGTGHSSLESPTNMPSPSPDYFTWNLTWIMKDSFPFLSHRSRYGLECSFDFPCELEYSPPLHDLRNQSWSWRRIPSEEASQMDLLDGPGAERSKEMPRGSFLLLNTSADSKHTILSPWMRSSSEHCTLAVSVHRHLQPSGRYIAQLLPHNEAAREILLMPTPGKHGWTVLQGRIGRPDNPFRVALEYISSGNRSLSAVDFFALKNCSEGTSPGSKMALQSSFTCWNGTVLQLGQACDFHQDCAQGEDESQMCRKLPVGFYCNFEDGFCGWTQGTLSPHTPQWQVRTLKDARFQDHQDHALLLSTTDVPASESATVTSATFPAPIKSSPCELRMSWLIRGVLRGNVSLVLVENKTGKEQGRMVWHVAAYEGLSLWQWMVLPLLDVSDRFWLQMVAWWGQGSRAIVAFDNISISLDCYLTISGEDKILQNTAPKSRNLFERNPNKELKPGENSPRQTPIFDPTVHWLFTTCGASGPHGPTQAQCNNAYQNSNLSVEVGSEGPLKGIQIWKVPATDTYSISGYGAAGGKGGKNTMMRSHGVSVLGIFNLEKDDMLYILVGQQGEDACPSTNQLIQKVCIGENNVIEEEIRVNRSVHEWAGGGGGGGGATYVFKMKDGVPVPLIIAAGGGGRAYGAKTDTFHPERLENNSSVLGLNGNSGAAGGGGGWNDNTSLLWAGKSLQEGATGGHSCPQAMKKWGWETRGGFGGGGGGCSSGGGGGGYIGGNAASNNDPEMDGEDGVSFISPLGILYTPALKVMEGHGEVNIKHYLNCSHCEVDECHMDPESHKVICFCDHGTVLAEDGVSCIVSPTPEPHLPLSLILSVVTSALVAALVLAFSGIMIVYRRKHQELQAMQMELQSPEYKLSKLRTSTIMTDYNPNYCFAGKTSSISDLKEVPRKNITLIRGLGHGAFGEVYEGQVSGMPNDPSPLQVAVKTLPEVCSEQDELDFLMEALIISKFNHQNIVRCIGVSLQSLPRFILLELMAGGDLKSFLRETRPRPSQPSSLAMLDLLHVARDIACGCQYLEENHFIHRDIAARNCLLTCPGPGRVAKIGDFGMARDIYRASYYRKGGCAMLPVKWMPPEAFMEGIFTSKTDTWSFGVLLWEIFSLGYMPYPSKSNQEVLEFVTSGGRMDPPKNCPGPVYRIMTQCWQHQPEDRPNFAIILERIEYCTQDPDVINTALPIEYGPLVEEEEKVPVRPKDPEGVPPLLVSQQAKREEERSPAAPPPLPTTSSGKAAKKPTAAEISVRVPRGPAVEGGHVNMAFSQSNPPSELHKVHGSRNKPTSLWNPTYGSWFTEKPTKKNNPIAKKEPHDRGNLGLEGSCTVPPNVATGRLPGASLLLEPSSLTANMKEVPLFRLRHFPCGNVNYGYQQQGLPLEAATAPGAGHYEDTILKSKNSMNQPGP
Insulin receptor, sequence (P06213 28-758 limits assumed): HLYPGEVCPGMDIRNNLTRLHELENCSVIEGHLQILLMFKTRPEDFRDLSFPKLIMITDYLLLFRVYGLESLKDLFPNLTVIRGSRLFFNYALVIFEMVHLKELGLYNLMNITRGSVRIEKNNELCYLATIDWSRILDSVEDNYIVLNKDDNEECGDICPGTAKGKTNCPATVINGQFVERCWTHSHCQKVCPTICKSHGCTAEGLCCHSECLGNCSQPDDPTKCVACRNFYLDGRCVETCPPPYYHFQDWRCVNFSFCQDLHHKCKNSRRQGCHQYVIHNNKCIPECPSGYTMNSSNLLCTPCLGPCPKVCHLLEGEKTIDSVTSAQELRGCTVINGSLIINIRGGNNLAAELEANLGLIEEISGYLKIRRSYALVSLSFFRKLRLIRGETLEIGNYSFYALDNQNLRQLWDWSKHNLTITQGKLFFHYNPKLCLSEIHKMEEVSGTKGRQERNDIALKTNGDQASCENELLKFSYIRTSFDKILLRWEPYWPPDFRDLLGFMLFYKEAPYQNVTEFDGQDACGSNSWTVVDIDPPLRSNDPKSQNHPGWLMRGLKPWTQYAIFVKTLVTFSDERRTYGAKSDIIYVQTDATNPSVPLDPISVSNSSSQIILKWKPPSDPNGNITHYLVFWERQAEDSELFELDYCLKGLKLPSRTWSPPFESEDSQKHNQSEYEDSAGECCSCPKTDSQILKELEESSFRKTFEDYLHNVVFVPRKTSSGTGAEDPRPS
Insulin receptor, sequence (P06213 763-1382 limits assumed): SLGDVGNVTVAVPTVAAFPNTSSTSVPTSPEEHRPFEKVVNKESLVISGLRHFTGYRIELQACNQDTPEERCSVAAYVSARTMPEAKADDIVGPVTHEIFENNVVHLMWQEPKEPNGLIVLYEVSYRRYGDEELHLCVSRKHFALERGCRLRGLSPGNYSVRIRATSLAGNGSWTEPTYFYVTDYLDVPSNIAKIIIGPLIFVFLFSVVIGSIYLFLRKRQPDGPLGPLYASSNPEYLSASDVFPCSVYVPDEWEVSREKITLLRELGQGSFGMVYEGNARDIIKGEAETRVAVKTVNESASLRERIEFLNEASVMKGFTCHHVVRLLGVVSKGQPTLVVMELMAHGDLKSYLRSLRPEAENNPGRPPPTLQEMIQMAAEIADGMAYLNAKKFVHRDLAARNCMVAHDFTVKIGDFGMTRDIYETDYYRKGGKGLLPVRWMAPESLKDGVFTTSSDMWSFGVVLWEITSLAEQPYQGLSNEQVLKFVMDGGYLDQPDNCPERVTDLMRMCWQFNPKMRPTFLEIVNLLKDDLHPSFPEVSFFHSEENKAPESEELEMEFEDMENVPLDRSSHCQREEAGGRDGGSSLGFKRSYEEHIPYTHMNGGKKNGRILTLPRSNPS

| IC50 (Insulin receptor) [µM] | IC50 [1] [µM] | IC50 [2] [µM] | Compound |
| --- | --- | --- | --- |
| > 40 | 9 | > 40 | COC(=O)c1cccc(Oc2nc[nH]c(=O)c2C2CC(C)=NN2C(C)=O)c1 (stereo not drawn) |
| > 40 | 3.03 | 4.01 | COC(=O)c1cccc(Oc2nc[nH]c(=O)c2/C=C/C(C)=O)c1 |
| > 40 | > 40 | > 40 | CCOC(=O)/C=C/c1c(Oc2cccc(C(=O)OC)c2)nc[nH]c1=O |
| > 40 | > 40 | > 40 | CC(=O)/C=C/c1c(Oc2ccc(C)cc2)nc[nH]c1=O |
| > 40 | > 40 | > 40 | CCOC(=O)/C=C/c1c(Oc2ccc(C)cc2)nc[nH]c1=O |
| > 40 | > 40 | > 40 | CC(=O)/C=C/c1c(Oc2ccc(C(C)(C)C)cc2)nc[nH]c1=O |
| > 40 | > 40 | > 40 | CCOC(=O)/C=C/c1c(Oc2ccc(C(C)(C)C)cc2)nc[nH]c1=O |
| > 40 | > 40 | > 40 | CC(=O)/C=C/c1c(Oc2ccccc2Cl)nc[nH]c1=O |
| > 40 | > 40 | > 40 | CCOC(=O)/C=C/c1c(Oc2ccccc2Cl)nc[nH]c1=O |
| > 40 | > 40 | > 40 | CC(=O)/C=C/c1c(Oc2ccc(F)cc2)nc[nH]c1=O |
| > 40 | > 40 | > 40 | CCOC(=O)/C=C/c1c(Oc2ccc(F)cc2)nc[nH]c1=O |
| > 40 | > 40 | > 40 | COC(=O)c1cc(OC)ccc1Oc1nc[nH]c(=O)c1/C=C/C(C)=O |
| > 40 | > 40 | > 40 | CCOC(=O)/C=C/c1c(Oc2ccc(OC)cc2C(=O)OC)nc[nH]c1=O |
| > 40 | > 40 | > 40 | COc1cccc(OC)c1Oc1nc[nH]c(=O)c1/C=C/C(C)=O |
| > 40 | > 40 | > 40 | CCOC(=O)/C=C/c1c(Oc2c(OC)cccc2OC)nc[nH]c1=O |
| > 40 | > 40 | > 40 | CC(=O)/C=C/c1c(Oc2cccc(C#N)c2)nc[nH]c1=O |
| > 40 | > 40 | > 40 | CCOC(=O)/C=C/c1c(Oc2cccc(C#N)c2)nc[nH]c1=O |
| > 40 | > 40 | > 40 | COc1cc(Cl)ccc1Oc1nc[nH]c(=O)c1/C=C/C(C)=O |
| > 40 | > 40 | > 40 | CCOC(=O)/C=C/c1c(Oc2ccc(Cl)cc2OC)nc[nH]c1=O |
| > 40 | > 40 | > 40 | COc1cccc(Oc2nc[nH]c(=O)c2/C=C/C(C)=O)c1 |
| > 40 | > 40 | > 40 | CCOC(=O)/C=C/c1c(Oc2cccc(OC)c2)nc[nH]c1=O |
| > 40 | > 40 | > 40 | CC(=O)/C=C/c1c(Oc2c(Cl)cccc2Cl)nc[nH]c1=O |
| > 40 | > 40 | > 40 | CCOC(=O)/C=C/c1c(Oc2c(Cl)cccc2Cl)nc[nH]c1=O |

| IC50 (Insulin receptor) [µM] | IC50 [1] [µM] | IC50 [2] [µM] | Compound |
| --- | --- | --- | --- |
| > 40 | 6.64 | > 40 | CC(=O)/C=C/c1c(Oc2ccc(NC(C)=O)cc2)nc[nH]c1=O |
| > 40 | 6.25 | > 40 | CC(=O)/C=C/c1c(Oc2cccc(C(C)=O)c2)nc[nH]c1=O |
| > 40 | 7.57 | > 40 | CC(=O)/C=C/c1c(Oc2ccc(O)cc2)nc[nH]c1=O |
| > 40 | 6.91 | > 40 | CC(=O)/C=C/c1c(Oc2ccc(C#N)cc2)nc[nH]c1=O |
| > 40 | 7.54 | > 40 | COc1cc(Oc2nc[nH]c(=O)c2/C=C/C(C)=O)c(C(C)=O)cc1OC |
| > 40 | > 40 | > 40 | CC(=O)/C=C/c1c(Oc2ccccc2C(C)=O)nc[nH]c1=O |
| > 40 | > 40 | > 40 | CC(=O)/C=C/c1c(Oc2ccc(C(C)=O)c(F)c2)nc[nH]c1=O |
| > 40 | 10.2 | > 40 | COC(=O)c1ccc(OC)cc1Oc1nc[nH]c(=O)c1/C=C/C(C)=O |
| > 40 | > 40 | > 40 | CC(=O)/C=C/c1c(Oc2ccc(C)cc2C(C)=O)nc[nH]c1=O |
| > 40 | 7.54 | > 40 | CCOC(=O)c1ccccc1Oc1nc[nH]c(=O)c1/C=C/C(C)=O |
| > 40 | > 40 | > 40 | CC(=O)/C=C/c1c(Oc2c(C)cc(C(C)=O)cc2C)nc[nH]c1=O |
| > 40 | > 40 | > 40 | COC(=O)c1cc(Cl)ccc1Oc1nc[nH]c(=O)c1/C=C/C(C)=O |
| > 40 | > 40 | > 40 | CCCCCCOC(=O)c1ccccc1Oc1nc[nH]c(=O)c1/C=C/C(C)=O |
| > 40 | > 40 | > 40 | CCOC(=O)c1ccc(Oc2nc[nH]c(=O)c2/C=C/C(C)=O)cc1 |
| > 40 | 9.87 | > 40 | CC(=O)/C=C/c1c(Oc2cc(C(F)(F)F)ccc2Cl)nc[nH]c1=O |
| > 40 | > 40 | > 40 | COC(=O)c1cccc(Oc2nc[nH]c(=O)c2CCC(C)=O)c1 |
| > 40 | > 40 | > 40 | COC(=O)c1cccc(Oc2nc[nH]c(=O)c2C2CC(C)=NN2C)c1 (stereo not drawn) |
| > 40 | > 40 | > 40 | COC(=O)c1cccc(Oc2nc[nH]c(=O)c2C2CC(C)=NN2)c1 (stereo not drawn) |
| > 40 | > 40 | > 40 | COC(=O)c1cccc(Oc2nc[nH]c(=O)c2-c2ccncc2)c1 |
| > 40 | > 40 | > 40 | COC(=O)c1cccc(Oc2nc[nH]c(=O)c2-c2cccc(N)c2)c1 |
| > 40 | > 40 | > 40 | COC(=O)c1cccc(Oc2nc[nH]c(=O)c2-c2cccc(OC)c2)c1 |
| > 40 | > 40 | > 40 | COC(=O)c1cccc(Oc2nc[nH]c(=O)c2-c2ccccc2)c1 |
| > 40 | > 40 | > 40 | COC(=O)c1cccc(Oc2nc[nH]c(=O)c2-c2cccc(C)c2)c1 |
